Experimental data reported in ChEMBL document CHEMBL1201862, “PubChem BioAssay data set” (2004).
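Protocol summary: plate cells (96-well), add compound at 5 concentrations, incubate 48 h, interpolate endpoints linearly. Here, GI50 denotes the concentration required for 50% inhibition of growth.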 Calls of active or inactive are those of the source. Rule as the data show it: active = GI50 up to about 1.1 µM and inactive = higher.

Assays:
Assay in all cases: NCI tumour cell line growth inhibition, 48 h
786-0 = tested on: 786-0
A498 = tested on: A498
A549 = tested on: A549
ACHN = tested on: ACHN
CAKI-1 = tested on: CAKI-1
CCRF-CEM = tested on: CCRF-CEM
COLO 205 = tested on: COLO 205
DLD-1 = tested on: DLD-1
DMS-114 = tested on: DMS-114
DMS-273 = tested on: DMS-273
EKVX = tested on: EKVX
HCC 2998 = tested on: HCC 2998
HCT-116 = tested on: HCT-116
HCT-15 = tested on: HCT-15
HL-60 = tested on: HL-60
HOP-18 = tested on: HOP-18
HOP-62 = tested on: HOP-62
HOP-92 = tested on: HOP-92
HT-29 = tested on: HT-29
IGROV-1 = tested on: IGROV-1
K562 = tested on: K562
KM-20L2 = tested on: KM-20L2
KM12 = tested on: KM12
LOX IMVI = tested on: LOX IMVI
LXFL 529 = tested on: LXFL 529
M14 = tested on: M14
M19-MEL = tested on: M19-MEL
MOLT-4 = tested on: MOLT-4
Malme-3M = tested on: Malme-3M
NCI-H226 = tested on: NCI-H226
NCI-H23 = tested on: NCI-H23
NCI-H460 = tested on: NCI-H460
NCI-H522 = tested on: NCI-H522
OVCAR-3 = tested on: OVCAR-3
OVCAR-4 = tested on: OVCAR-4
OVCAR-5 = tested on: OVCAR-5
OVCAR-8 = tested on: OVCAR-8
RPMI-8226 = tested on: RPMI-8226
RXF 393 = tested on: RXF 393
SF-268 = tested on: SF-268
SF-295 = tested on: SF-295
SF-539 = tested on: SF-539
SK-MEL-28 = tested on: SK-MEL-28
SK-MEL-2 = tested on: SK-MEL-2
SK-MEL-5 = tested on: SK-MEL-5
SK-OV-3 = tested on: SK-OV-3
SN12C = tested on: SN12C
SNB-19 = tested on: SNB-19
SNB-75 = tested on: SNB-75
SNB-78 = tested on: SNB-78
SR = tested on: SR
SW-620 = tested on: SW-620
TK-10 = tested on: TK-10
U-251 = tested on: U-251
UACC-257 = tested on: UACC-257
UACC-62 = tested on: UACC-62
UO-31 = tested on: UO-31

Measured: GI50

N#CC1(C#N)C(C#N)(C#N)C12CCCCCC2
8.41 µM: HCT-15
inactive: 786-0 6.59 µM | A498 18.5 µM | A549 14.7 µM | ACHN 11.1 µM | CAKI-1 12.2 µM | CCRF-CEM 1.85 µM | COLO 205 15.7 µM | DLD-1 4.1 µM | DMS-114 21.1 µM | DMS-273 22.4 µM | EKVX 17.3 µM | HCC 2998 19.6 µM | HCT-116 5.01 µM | HL-60 3.48 µM | HOP-18 16.4 µM | HOP-62 > 52.8 µM | HOP-92 15.4 µM | HT-29 17.2 µM | IGROV-1 40.2 µM | K562 3.1 µM | KM-20L2 16.6 µM | KM12 14 µM | LOX IMVI 16.7 µM | LXFL 529 15.2 µM | M14 2.81 µM | M19-MEL 20.5 µM | MOLT-4 5.45 µM | Malme-3M 16.4 µM | NCI-H226 20 µM | NCI-H23 16 µM | NCI-H460 > 47.1 µM | NCI-H522 2.77 µM | OVCAR-3 16.1 µM | OVCAR-4 16.3 µM | OVCAR-5 16.4 µM | OVCAR-8 13.2 µM | RPMI-8226 3.28 µM | RXF 393 10.4 µM | SF-268 22.5 µM | SF-295 > 39.7 µM | SF-539 13.6 µM | SK-MEL-28 8.57 µM | SK-MEL-2 13.2 µM | SK-MEL-5 18 µM | SK-OV-3 > 64.4 µM | SN12C 18.1 µM | SNB-19 29.4 µM | SNB-75 22.9 µM | SNB-78 13.3 µM | SR 22.1 µM | SW-620 1.95 µM | TK-10 16.8 µM | U-251 14.1 µM | UACC-257 13.9 µM | UACC-62 12.9 µM | UO-31 18.5 µM
